One series concerns NCI-H1417 cells. Kind of series: Experiment 2: inhibition of NCI-H1417 cell proliferation (CellTiter-Glo, 10 days). The class given is cell-based. Particulars: Homo sapiens, 240 h, 10 days incubation. On the procedure:
Experiment 2: Evaluation of Inhibitory Activity on NCI-H1417 Cell Proliferation
Experimental purpose: To test the inhibitory activity of test compounds on NCI-H1417 cell proliferation.
Experimental materials: RPMI 1640 medium, fetal bovine serum, Promega CellTiter-Glo reagent. The NCI-H1417 cell line was purchased from ATCC. Envision multilabel plate reader (PerkinElmer).
Experimental method: The compounds were dissolved to 10 mM and 5-fold diluted with DMSO in the compound plates, starting with a concentration of 2 mM. 3-fold serial dilution was performed with Bravo to 10 concentrations. Then 250 nL of the compound solution was transferred to the upper and lower double duplicate wells of a blank 384 cell plate with Echo. To each well containing the transferred 250 nL of DMSO/compound was added a cell suspension of 1000 cells/50 μL per well, and the compound was diluted 200-fold, i.e., resulting in an initial working concentration of 10 μM. The cell plate was incubated in a carbon dioxide incubator for 10 days. To the cell plate was added 25 μL of Promega CellTiter-Glo reagent per well and the mixture was shaken for 10 minutes at room temperature to stabilize the luminescence signal. Readings were performed on a PerkinElmer Envision multilabel plate reader.
Data analysis: Raw data were converted into inhibition rate using the formula: (Max−Ratio)/(Max−Min)*100%. The IC50 values could then be derived from four-parameter curve fitting. (derived from 205 mode in XLFIT5, iDBS)
The compounds were tested for inhibitory activity of compounds on NCI-H1417 cell proliferation, and the results are shown in Table 3.

The next series has as its target human LSD1 (Homo sapiens (Human), UniProt O60341). Kind of series: Experiment 1B: in vitro LSD1 enzyme activity, enzyme-coupled fluorescence (HRP/Amplex Red), H3(1-21)K4me2 peptide 10 μM (Reaction Biology). Particulars: histone H3(1-21)K4me2 peptide 10 μM. It is filed as biochemical. On the procedure:
Experiment 1B: Evaluation of Enzyme Activity
Testing unit: Reaction Biology Corp., USA.
The purpose of the assay was to test the in vitro inhibitory activity of the compounds against LSD1. The enzyme used in the assay was human LSD1, and the standard substrate was histone H3(1-21)K4me2 peptide (10 μM). The activity of the compounds was determined by the enzyme-coupling fluorescent method by the combined detection of H2O2 generated after the reaction of LSD1 by horseradish peroxidase (HRP) and the fluorescent reagent Amplex Red. Starting from 10 μM, the compounds were 3-fold diluted to detect the IC50 values of the compounds at 10 concentrations. The enzyme and substrate were incubated for 30 minutes before the compound was added to the substrate to start the reaction. Fluorescence detector: EnVision, excitation wavelength: Ex/Em=535/590 nM.

Series [1] addresses hERG potassium ion channels (Homo sapiens (Human), UniProt Q12809). As to the kind of experiment: Experiment 4: hERG potassium ion channel inhibition, automated patch clamp (Qpatch), CHO-hERG cells. Particulars: highest test concentration 40 μM. It is filed as cell-based. As to the method: Experiment 4: hERG Potassium Ion Channel Inhibition Assay
Experimental purpose: To test the effects of the test examples on hERG potassium ion channels using an automated patch clamp method.
4.1.1 CHO-hERG cells were cultured in a 175 cm^2 culture flask. When the cell density grew from 60% to 80%, the culture medium was removed. The cells were washed once with 7 mL of PBS (Phosphate Buffered Saline), and then 3 mL of Detachin cell dissociation reagent was added thereto for digestion.
4.1.2 After the digestion was completed, 7 mL of culture medium was added thereto for neutralization, then the mixture was centrifuged, the supernatant was aspirated, and then 5 mL of culture medium was added thereto for resuspension to ensure a cell density of 2×10^6/mL to 5×10^6/ML.
The single-cell high-resistance sealing and whole-cell modeling formation processes were all automatically completed by the Qpatch instrument of the Shanghai Institute of Materia Medica, Chinese Academy of Sciences. After obtaining the whole-cell recording modeling, the cells were clamped at −80 mV, and before a 5-second +40 mV depolarizing stimulus was given, a 50-millisecond −50 mV prepulse was first given, then the voltage was repolarized to −50 mV and holden for 5 seconds, and finally returned to −80 mV. This voltage stimulus was applied every 15 seconds, recorded for 2 minutes, and then the extracellular fluid was recorded for 5 minutes, and then the administration process was initiated, with compound concentrations starting at the lowest test concentration. The voltage stimulus was given for 2.5 minutes for each test concentration, and after all concentrations had been continuously given, 3 μM the positive control compound, Cisapride, was given. At least 3 cells were tested per concentration (n≥3).
4.4.1 The compound stock solution was diluted with DMSO, and 20 μL of DMSO solution was added with 10 μL of the compound stock solution, and serially diluted 3-fold to 6 DMSO concentrations.
4.4.2 4 μL of 6 DMSO concentrations of compounds were taken respectively and added to 396 μL of extracellular fluid, and the mixture was diluted 100-fold to 6 intermediate concentrations, then 80 μL of 6 intermediate concentrations of compounds was taken and added to 320 μL of extracellular fluid, and the mixture was diluted 5-fold to the final test concentration.
4.4.3 The highest test concentration was 40 μM, and the concentrations were respectively 40, 13.3, 4.4, 1.48, 0.494, and 0.165 μM for a total of six concentrations.
4.4.5 The preparation of the compound was completed by the Bravo instrument throughout the dilution process.
Experimental data were analyzed by GraphPad Prism 5.0 software.
(In general: The hERG channel carries a current that helps repolarise heart muscle cells.)

The nature of series [2]: Experiment 3: pharmacokinetic evaluation in CD-1 mice (IV and oral). It is filed as in vivo. Particulars: mouse, plasma, male CD-1 mice. As to the method:
Experiment 3: Pharmacokinetic Evaluation of Compounds
Experimental purpose: To test the pharmacokinetics of compounds in CD-1 mice in vivo
CD-1 mice (male/female, 7 to 9 weeks old, Shanghai SLAC)
The pharmacokinetic characteristics of the compounds in rodents after intravenous injection and oral administration were tested according to the standard protocol. In the experiment, the candidate compound was formulated into clear solutions, and a single intravenous injection and oral administration were given to mice. The vehicle for intravenous injection and oral administration was a mixed vehicle composed of 10% dimethyl sulfoxide and 90% hydroxypropyl β-cyclodextrin with a content of 10%. In this project, four male/female CD-1 mice were used. Two mice were injected intravenously at a dose of 1 mg/kg, and plasma samples were collected at 0.083, 0.25, 0.5, 1, 2, 4, 8, and 24 hours after administration; the other two were administered orally by gavage at a dose of 2 mg/kg, and plasma samples were collected at 0.25, 0.5, 1, 2, 4, 8, and 24 hours after administration. The samples were centrifuged at 3200 g for 10 minutes at 4° C., and plasma samples were obtained by separating the supernatant. A methanol solution containing internal standard with 20 times the volume of the sample was added thereto to precipitate the protein, and the mixture was centrifuged at 12000 g for 15 minutes at 4° C. 50 μL of the supernatant was taken and transferred to a 96-well plate and centrifuged again. The supernatant was taken for sampling. The plasma concentration was quantitatively analyzed using LC-MS/MS analysis method, and pharmacokinetic parameters, such as peak concentration (Cmax), clearance rate (CL), half-life (T1/2), volume of distribution at steady state (Vdss), area under drug-time curve (AUC0-last), bioavailability (F).

22 compounds from patent US20240199571A1, “THIOPHENE COMPOUND AND APPLICATION THEREOF” (MEDSHINE DISCOVERY INC., priority 2021, published 2024) can be followed below.

Counter-ions that a name gives are not always drawn.

What is called IC50 is the concentration needed to halve the response being measured. Read a low IC50 as inhibition by little substance. As usually defined, the bioavailability is the share of a dose that reaches the circulation, judged against a reference dose that is usually intravenous.

hERG potassium ion channels, sequence (Q12809 whole entry): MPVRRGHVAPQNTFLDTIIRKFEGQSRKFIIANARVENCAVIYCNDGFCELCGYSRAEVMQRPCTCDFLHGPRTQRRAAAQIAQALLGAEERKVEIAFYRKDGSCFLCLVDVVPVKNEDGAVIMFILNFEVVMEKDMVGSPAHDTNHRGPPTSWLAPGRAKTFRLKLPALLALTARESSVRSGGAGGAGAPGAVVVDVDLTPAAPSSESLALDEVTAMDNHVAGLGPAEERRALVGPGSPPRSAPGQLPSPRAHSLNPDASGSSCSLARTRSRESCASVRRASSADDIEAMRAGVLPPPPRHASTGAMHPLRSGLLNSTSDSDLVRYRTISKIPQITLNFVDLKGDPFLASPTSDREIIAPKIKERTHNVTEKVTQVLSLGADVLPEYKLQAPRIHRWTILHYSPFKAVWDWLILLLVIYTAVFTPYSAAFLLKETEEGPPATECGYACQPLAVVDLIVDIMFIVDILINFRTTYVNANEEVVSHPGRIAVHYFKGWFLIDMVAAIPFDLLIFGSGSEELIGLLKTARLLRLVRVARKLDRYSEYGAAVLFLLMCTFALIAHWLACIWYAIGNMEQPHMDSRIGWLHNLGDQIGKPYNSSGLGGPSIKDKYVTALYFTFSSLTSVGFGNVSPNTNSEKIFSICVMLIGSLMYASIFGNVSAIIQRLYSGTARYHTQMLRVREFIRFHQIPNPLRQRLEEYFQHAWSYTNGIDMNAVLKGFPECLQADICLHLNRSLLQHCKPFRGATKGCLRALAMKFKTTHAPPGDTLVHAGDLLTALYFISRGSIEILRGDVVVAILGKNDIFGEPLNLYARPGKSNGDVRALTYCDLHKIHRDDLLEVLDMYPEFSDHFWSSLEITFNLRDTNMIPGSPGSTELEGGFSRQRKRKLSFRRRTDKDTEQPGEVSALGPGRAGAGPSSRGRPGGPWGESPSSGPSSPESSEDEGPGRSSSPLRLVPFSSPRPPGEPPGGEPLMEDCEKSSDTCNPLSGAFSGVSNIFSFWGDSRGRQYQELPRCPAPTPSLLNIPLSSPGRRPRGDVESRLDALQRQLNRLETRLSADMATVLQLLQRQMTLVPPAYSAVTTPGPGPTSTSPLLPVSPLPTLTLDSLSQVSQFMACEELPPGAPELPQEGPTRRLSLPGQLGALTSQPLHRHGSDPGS

Regarding `N#Cc1ccc(-c2cc(C(=O)N3CCC[C@@H](N)C3)sc2-c2ccc(OCC(O)CO)c(F)c2)cc1F` (stereo partly drawn) [Hydrochloride of compound 54], the IC50 is 0.00511 µM in the series on NCI-H1417 cells, 0.0499 µM against human LSD1 and above 40 µM in series [1].
`Cn1cc2cc(-c3sc(C(=O)N4CCC[C@@H](N)C4)cc3-c3ccc(C#N)c(F)c3)cnc2n1` [Hydrochloride of compound 56]: the figures for the IC50 (in the series on NCI-H1417 cells; against human LSD1; in series [1]) were 0.0568 µM, 0.109 µM and above 40 µM, respectively.
Turning to `N#Cc1ccc(-c2cc(C(=O)N3CCC[C@@H](N)C3)sc2-c2ccc3c(c2)nnn3CC2(O)CCC2)cc1F` [Hydrochloride of compound 82], the results for the IC50 (with NCI-H1417 cells; against human LSD1; in series [1]) were 0.00173 µM, 0.00301 µM and 14.9 µM, respectively.
`N#Cc1ccc(-c2cc(C(=O)N3CCC[C@@H](N)C3)sc2-c2ccn3cnnc3c2)cc1F` [Compound 76]: the IC50 in series [1] is above 40 µM.
As for `N#Cc1ccc(-c2cc(C(=O)N3CCC[C@@H](N)C3)sc2-c2ccc3c(c2)CNC3=O)cc1F` [Hydrochloride of compound 46], the values for the 50% inhibitory concentration (IC50) (with NCI-H1417 cells; against human LSD1; in series [1]) were 0.0194 µM, 0.0813 µM and above 40 µM, respectively.
Taken in the same sequence, the figures for `N#Cc1ccc(-c2cc(C(=O)N3CCC[C@@H](N)C3)sc2-c2ccc3c(cnn3CC(O)CO)c2)cc1F` (stereo partly drawn) [Hydrochloride of compound 62] were 0.0112 µM, 0.0301 µM and above 40 µM.
On to `CC1(O)CC(n2cc3cc(-c4sc(C(=O)N5CCC[C@@H](N)C5)cc4-c4ccc(C#N)c(F)c4)ccc3n2)C1` (stereo partly drawn) [Hydrochloride of compound 86], for which the IC50 in the series with NCI-H1417 cells was found to be 0.0103 µM; at human LSD1 it was 0.016 µM; in series [1] it was 21 µM.
Regarding `N#Cc1ccc(-c2cc(C(=O)N3CCC[C@@H](N)C3)sc2-c2ccc3nn(C4CC(O)C4)cc3c2)cc1F` (stereo partly drawn) [Hydrochloride of compound 73], the IC50 is 0.0145 µM with NCI-H1417 cells, 0.0118 µM at human LSD1 and above 40 µM in series [1].
Regarding `N#Cc1ccc(-c2cc(C(=O)N3CCC[C@@H](N)C3)sc2-c2ccc3nn(CC4(O)CC4)cc3c2)cc1F` [Hydrochloride of compound 89], the 50% inhibitory concentration (IC50) in the series on NCI-H1417 cells was 0.00161 µM; against human LSD1, 0.0152 µM; in series [1], 22.7 µM.
`N#Cc1ccc(-c2cc(C(=O)N3CCC[C@@H](N)C3)sc2-c2cnc(N)nc2)cc1F` [Hydrochloride of compound 45] registered an IC50 in series [1] of 32.6 µM.
`N#Cc1ccc(-c2cc(C(=O)N3CCC[C@@H](N)C3)sc2-c2ccc3oncc3c2)cc1F` [Compound 77]: in series [1], the half-inhibitory concentration (IC50) is above 40 µM.
`COC1CC(n2cc3cc(-c4sc(C(=O)N5CCC[C@@H](N)C5)cc4-c4ccc(C#N)c(F)c4)ccc3n2)C1` (stereo partly drawn) [Hydrochloride of compound 80]: the results for the half-maximal inhibitory concentration (IC50) with NCI-H1417 cells and at human LSD1 were 0.0161 µM and 0.0202 µM, respectively. Besides, in series [2] (IV 1 mg/kg, read-out: Clearance rate CL), the clearance amounted to 33.7 mL/min/kg. Also, the half-life in series [2] (IV 1 mg/kg, read-out: Half life T1/2 (IV, h) (converted)) was 1.93 h. Besides, the Vd in series [2] (IV 1 mg/kg, read-out: Volume of distribution at steady state Vdss) was found to be 4.89 L/kg. Also, in series [2] (PO 2 mg/kg vs IV 1 mg/kg, read-out: Bioavailability F (%)), the bioavailability worked out at 31.9%. In addition, the AUC(0-t) in series [2] (PO 2 mg/kg, read-out: Area under drug-time curve AUC0-last PO) stood at 0.576 µM·h. In addition, the Cmax in series [2] (single dose, oral 2 mg/kg, read-out: Peak concentration Cmax) was found to be 109 nM.
Regarding `CC(C)(O)Cn1cc2cc(-c3sc(C(=O)N4CCC[C@@H](N)C4)cc3-c3ccc(C#N)c(F)c3)cnc2n1` [Compound 61], in series [1], the IC50 is above 40 µM.
On to `N#Cc1ccc(-c2cc(C(=O)N3CCC[C@@H](N)C3)sc2-c2ccc3nn(C4COC4)cc3c2)cc1F` [Compound 70], for which the results for the IC50 (in the series with NCI-H1417 cells; in series [1]) were 0.00988 µM and 18.7 µM, respectively.
As for `N#Cc1ccc(-c2cc(C(=O)N3CCC[C@@H](N)C3)sc2-c2ccc3nncn3c2)cc1F` [Compound 67], the half-inhibitory concentration (IC50) in series [1] was above 40 µM.
In the case of `N#Cc1ccc(-c2cc(C(=O)N3CCC[C@@H](N)C3)sc2-c2ccc(N3CC[C@@H](O)C3)cc2)cc1F` [Hydrochloride of compound 110], the IC50 was determined as 0.00347 µM in the series on NCI-H1417 cells and 0.00984 µM against human LSD1.
In series [1], `CC1(O)CN(C(=O)c2ccc(-c3sc(C(=O)N4CCC[C@@H](N)C4)cc3-c3ccc(C#N)c(F)c3)cc2)C1` [Compound 81] yielded an IC50 above 40 µM.
On to `N#Cc1ccc(-c2cc(C(=O)N3CCC[C@@H](N)C3)sc2-c2ccc(OCC(=O)O)c(F)c2)cc1F` [Hydrochloride of compound 30], for which the half-maximal inhibitory concentration (IC50) against human LSD1 was 0.122 µM; in series [1] it was above 40 µM.
As for `CN[C@@H]1CCCN(C(=O)c2cc(-c3ccc(C#N)c(F)c3)c(-c3ccc4nn(C(C)(C)CO)cc4c3)s2)C1` [Hydrochloride of compound 104], the IC50 was found to be 0.00475 µM with NCI-H1417 cells and 0.0166 µM against human LSD1.
Taken in the same sequence, the figures for `N#Cc1ccc(-c2cc(C(=O)N3CCC[C@@H](N)C3)sc2-c2ccc3nn(CC4(O)CCC4)cc3c2)cc1F` [Hydrochloride of compound 79] were 0.00332 µM and 0.0136 µM.
For `Cn1cc(-c2sc(C(=O)N3CCC[C@@H](N)C3)cc2-c2ccc(C#N)c(F)c2)ccc1=O` [Hydrochloride of compound 32], in series [1], the IC50 was above 40 µM.
As to `CN[C@@H]1CCCN(C(=O)c2cc(-c3ccc(C#N)c(F)c3)c(-c3ccc(N4CC(C)(O)C4)cc3)s2)C1` [Compound 122], the values for the concentration for half-maximal inhibition (IC50) in the series on NCI-H1417 cells and at human LSD1 were 0.00983 µM and 0.0131 µM, respectively.
